From DBAASP
≈ marks a conversion by molar mass, not a printed value. Where “and” joins values, the source holds several entries; their conditions need not be identical. Identical values can stand only once. Values belong to the molecule of their own block, whether it stands above or below them.

Assays:
Test in all cases: ≥ marks a high value that may be exact or a test limit, other limits are often not marked, values filed in µg/mL are converted to µM
Pseudomonas aeruginosa = test system: Pseudomonas aeruginosa
Micrococcus luteus = test system: Micrococcus luteus
Salmonella typhimurium = test system: Salmonella typhimurium
Staphylococcus aureus = test system: Staphylococcus aureus
[1] = test system: Staphylococcus epidermidis
Klebsiella pneumoniae = test system: Klebsiella pneumoniae
Proteus mirabilis = test system: Proteus mirabilis
Bacillus subtilis = test system: Bacillus subtilis
Escherichia coli = test system: Escherichia coli
Shigella dysenteriae = test system: Shigella dysenteriae
[2] = test system: Staphylococcus aureus USA 100
[3] = test system: Staphylococcus aureus NCTC 10788
[4] = test system: Candida albicans NCPF 1467
[5] = test system: Escherichia coli NCTC 10418
[6] = test system: Salmonella enterica subsp. enterica serovar Typhimurium ATCC 14028
[7] = test system: Escherichia coli ATCC 25922
[8] = test system: Pseudomonas aeruginosa ATCC 27853
Escherichia coli UB1005 = test system: Escherichia coli UB1005
[9] = test system: Salmonella typhimurium ATCC 7731
[10] = test system: Bacillus subtilis CMCC 63501
[11] = test system: Staphylococcus aureus ATCC 29213
[12] = test system: Staphylococcus epidermidis ATCC 12228
[13] = test system: Pseudomonas syringae pv. tomato DC3000
[14] = test system: Xanthomonas vesicatoria DSM 50861
[15] = test system: Pectobacterium carotovorum subsp. carotovorum DSM 30168
[16] = test system: Clavibacter michiganensis subsp. michiganensis DSM 46294
[17] = test system: Pseudomonas corrugata DSM 7228
[18] = test system: Pseudomonas syringae pv. syringae DSM 10604
[19] = test system: Salmonella enterica subsp. enterica serovar Pullorum C79-13
[20] = test system: Staphylococcus aureus ATCC 43300

MIC (Pseudomonas aeruginosa): > 134 µM
MIC (Micrococcus luteus): 4.23 µM (≈ 6.3 µg/mL)
MIC (Salmonella typhimurium): ≥ 134 µM
MIC (Staphylococcus aureus): 2.08 µM (≈ 3.1 µg/mL)
MIC [1]: 2.08 µM (≈ 3.1 µg/mL)
MIC (Klebsiella pneumoniae): 67.1 µM (≈ 100 µg/mL)
MIC (Proteus mirabilis): ≥ 134 µM
MIC (Bacillus subtilis): 16.8 µM (≈ 25 µg/mL)
MIC (Escherichia coli): 33.6 µM (≈ 50 µg/mL)
MIC (Shigella dysenteriae): ≥ 33.6 µM
Compound: CC(C)C[C@H](NC(=O)[C@@H](NC(=O)[C@H](CCCCN)NC(=O)[C@H](CC(C)C)NC(=O)[C@H](C)NC(=O)[C@@H](NC(=O)[C@H](CCCCN)NC(=O)[C@H](Cc1ccccc1)NC(=O)[C@H](CC(C)C)NC(=O)[C@H](C)NC(=O)[C@H](CCCCN)NC(=O)[C@H](CC(C)C)NC(=O)[C@@H](N)Cc1ccccc1)C(C)C)C(C)C)C(=O)O [FLKALFKVALKVL]

MIC [2]: ≥ 100 µM
Compound: NC(=O)[C@H](CCCN=C(N)N)NC(=O)[C@H](Cc1ccccc1)NC(=O)[C@H](CCCN=C(N)N)NC(=O)[C@@H](N)Cc1ccccc1 [FRFR]

MIC [3]: ≥ 203 µM
MIC [4]: ≥ 101 µM
MIC [5]: ≥ 50.7 µM
Compound: CC[C@H](C)[C@H](NC(=O)[C@H](CO)NC(=O)[C@H](CC(N)=O)NC(=O)[C@@H](NC(=O)[C@H](CC(C)C)NC(=O)[C@H](C)NC(=O)[C@H](CO)NC(=O)[C@H](C)NC(=O)[C@H](Cc1ccccc1)NC(=O)[C@H](CC(=O)O)NC(=O)[C@H](CCCCN)NC(=O)[C@H](C)NC(=O)CNC(=O)[C@H](CCCCN)NC(=O)[C@H](CCCCN)NC(=O)[C@H](CC(C)C)NC(=O)[C@H](CCCCN)NC(=O)[C@H](CCC(=O)O)NC(=O)[C@H](CC(C)C)NC(=O)[C@H](Cc1ccccc1)NC(=O)CN)C(C)C)C(=O)N[C@@H](CCCCN)C(=O)NCC(=O)N[C@H](C(=O)O)[C@@H](C)O [GFLEKLKKGAKDFASALVNSIKGT]

MIC [3]: 3.05 µM (≈ 8 µg/mL)
MIC [4]: 12.2 µM (≈ 32 µg/mL)
MIC [5]: 12.2 µM (≈ 32 µg/mL)
Compound: CC[C@H](C)[C@H](NC(=O)CN)C(=O)NCC(=O)NCC(=O)N[C@@H](C)C(=O)N[C@@H](CC(C)C)C(=O)N[C@@H](CC(C)C)C(=O)N[C@@H](CC(N)=O)C(=O)N[C@H](C(=O)NCC(=O)N[C@@H](CCCCN)C(=O)N[C@H](C(=O)N[C@@H](C)C(=O)N[C@@H](CC(C)C)C(=O)N[C@@H](CCCCN)C(=O)NCC(=O)N[C@@H](CC(C)C)C(=O)N[C@@H](C)C(=O)N[C@@H](CCCCN)C(=O)NCC(=O)N[C@@H](CC(C)C)C(=O)N[C@@H](C)C(=O)N[C@@H](CCC(=O)O)C(=O)N[C@@H](Cc1cnc[nH]1)C(=O)N[C@@H](Cc1ccccc1)C(=O)N[C@@H](C)C(=O)N[C@@H](CC(N)=O)C(N)=O)C(C)C)C(C)C [GIGGALLNVGKVALKGLAKGLAEHFAN]

MIC [6]: 4 µM (≈ 12.4 µg/mL)
MIC [7]: 2 µM and 4 µM
MIC [8]: 4 µM and > 2 µM
MIC (Escherichia coli UB1005): 4 µM (≈ 12.4 µg/mL)
MIC [9]: 4 µM (≈ 12.4 µg/mL)
MIC [10]: 2 µM (≈ 6.19 µg/mL)
MIC [11]: 4 µM (≈ 12.4 µg/mL)
MIC [12]: 2 µM (≈ 6.19 µg/mL)
Compound: CC[C@H](C)[C@H](NC(=O)CNC(=O)[C@H](C)NC(=O)[C@H](C)NC(=O)[C@@H](NC(=O)[C@@H](NC(=O)[C@H](CC(N)=O)NC(=O)[C@@H](NC(=O)[C@H](C)NC(=O)[C@@H](NC(=O)[C@@H]1CCCN1C(=O)[C@@H](NC(=O)[C@H](CC(C)C)NC(=O)[C@@H]1CCCN1C(=O)[C@H](Cc1c[nH]c2ccccc12)NC(=O)[C@H](Cc1ccccc1)NC(=O)[C@H](CCCN=C(N)N)NC(=O)[C@@H](N)CCCCN)C(C)C)C(C)C)[C@@H](C)CC)[C@@H](C)O)C(C)C)C(=O)N[C@@H](CC(N)=O)C(=O)N[C@@H](CC(C)C)C(=O)N[C@@H](Cc1ccc(O)cc1)C(=O)N[C@@H](CCCCN)C(=O)N[C@@H](C)C(=O)N[C@H](C(=O)N[C@@H](CCCN=C(N)N)C(=O)N[C@@H](CCCN=C(N)N)C(=O)N[C@@H](CCCCN)C(N)=O)[C@@H](C)CC [KRFWPLVPVAINTVAAGINLYKAIRRK]

Continued, molecule first:

Compound: CC(C)C[C@H](NC(=O)[C@H](C)N)C(=O)N[C@@H](Cc1ccccc1)C(=O)N[C@@H](CCCCN)C(=O)N[C@H](C(=O)N[C@@H](C)C(=O)N[C@@H](CO)C(=O)N[C@@H](CCCCN)C(=O)N[C@H](C(=O)N[C@@H](CC(C)C)C(=O)N1CCC[C@H]1C(=O)N[C@@H](CO)C(=O)N[C@H](C(=O)O)C(C)C)C(C)C)C(C)C [ALFKVASKVLPSV]
MIC (Pseudomonas aeruginosa): > 147 µM
MIC (Micrococcus luteus): ≥ 147 µM
MIC (Salmonella typhimurium): ≥ 147 µM
MIC (Staphylococcus aureus): > 147 µM
MIC [1]: ≥ 147 µM
MIC (Klebsiella pneumoniae): > 147 µM
MIC (Proteus mirabilis): ≥ 147 µM
MIC (Bacillus subtilis): ≥ 147 µM
MIC (Escherichia coli): > 147 µM
MIC (Shigella dysenteriae): ≥ 147 µM

Compound: NC(=O)[C@H](CCCN=C(N)N)NC(=O)[C@H](CC(=O)O)NC(=O)[C@H](CCCN=C(N)N)NC(=O)[C@@H](N)CC(=O)O [DRDR]
MIC [2]: ≥ 100 µM

Compound: CC[C@H](C)[C@H](NC(=O)[C@H](C)NC(=O)[C@H](CCCCN)NC(=O)[C@@H]1CCCN1C(=O)[C@@H](NC(=O)[C@H](CC(C)C)NC(=O)[C@H](CCCCN)NC(=O)[C@H](Cc1ccccc1)NC(=O)[C@H](CC(C)C)NC(=O)[C@@H](N)Cc1ccccc1)[C@@H](C)CC)C(=O)N[C@@H](CCCCN)C(=O)NCC(=O)N[C@@H](CC(C)C)C(=O)N[C@H](C(=O)N[C@@H](CCCCN)C(=O)N[C@@H](C)C(=O)N[C@@H](Cc1ccccc1)C(=O)N[C@H](C=O)CCCCN)[C@@H](C)CC [FLFKLIPKAIKGLIKAFK]
MIC [3]: 4 µM (≈ 8.24 µg/mL)
MIC [4]: 4 µM (≈ 8.24 µg/mL)
MIC [5]: 8 µM (≈ 16.5 µg/mL)

Compound: CC[C@H](C)[C@H](NC(=O)[C@H](C)NC(=O)[C@H](CCCCN)NC(=O)[C@@H](NC(=O)[C@H](CC(C)C)NC(=O)CNC(=O)[C@H](CCCCN)NC(=O)[C@@H](NC(=O)[C@@H](NC(=O)[C@H](CCCCN)NC(=O)[C@@H]1CCCN1C(=O)[C@@H](NC(=O)[C@H](CC(C)C)NC(=O)[C@H](CCCCN)NC(=O)[C@H](Cc1ccccc1)NC(=O)[C@H](CC(C)C)NC(=O)[C@@H](N)Cc1ccccc1)[C@@H](C)CC)C(C)C)[C@@H](C)CC)C(C)C)C(=O)N[C@@H](CCCN=C(N)N)C(=O)N[C@@H](CCCCN)C(N)=O [FLFKLIPKVIKGLVKAIRK]
MIC [3]: 1.81 µM (≈ 4 µg/mL)
MIC [4]: 1.81 µM (≈ 4 µg/mL)
MIC [5]: 7.23 µM (≈ 16 µg/mL)

Compound: CC[C@H](C)[C@H](NC(=O)[C@H](CC(C)C)NC(=O)[C@H](CCCN=C(N)N)NC(=O)[C@H](CCCCN)NC(=O)[C@H](CC(C)C)NC(=O)[C@H](CC(C)C)NC(=O)[C@H](CCCCN)NC(=O)[C@H](CCCCN)NC(=O)[C@H](CCCN=C(N)N)NC(=O)[C@H](CCCCN)NC(=O)[C@H](CCCCN)NC(=O)[C@@H](N)CCCN=C(N)N)C(N)=O [RKKRKKLLKRLI]
MIC [13]: 6.33 µM (≈ 9.99 µg/mL)
MIC [14]: 6.33 µM (≈ 9.99 µg/mL)
MIC [15]: 6.33 µM (≈ 9.99 µg/mL)
MIC [16]: 3.16 µM (≈ 5 µg/mL)
MIC [17]: 0.316 µM (≈ 0.5 µg/mL)
MIC [18]: 0.158 µM (≈ 0.25 µg/mL)

Compound: NCCCC[C@H](NC(=O)[C@H](Cc1c[nH]c2ccccc12)NC(=O)[C@H](CCCCN)NC(=O)[C@@H](N)Cc1c[nH]c2ccccc12)C(N)=O [WKWK]
MIC [2]: ≥ 100 µM

Compound: CC(C)C[C@H](NC(=O)[C@H](CCCCN)NC(=O)[C@H](CCCCN)NC(=O)[C@H](C)NC(=O)[C@@H](NC(=O)[C@H](CCCCN)NC(=O)[C@H](CO)NC(=O)[C@H](CC(C)C)NC(=O)[C@@H](N)Cc1c[nH]c2ccccc12)[C@@H](C)O)C(N)=O [WLSKTAKKL]
MIC [7]: > 128 µM
MIC [8]: > 128 µM
MIC (Escherichia coli UB1005): ≥ 128 µM
MIC [19]: ≥ 128 µM
MIC [9]: ≥ 128 µM
MIC [20]: > 128 µM
MIC [10]: ≥ 128 µM
MIC [11]: > 128 µM
MIC [12]: > 128 µM
